Measurements published in article PMC9097188, “Design, Synthesis, and Molecular Modeling Studies of a Novel Benzimidazole as an Aromatase Inhibitor” (ACS Omega, 2022).
Read-outs that look alike come from different tables or passages of the source.

Key:
human aromatase = biological target: T1, human aromatase (Homo sapiens, UniProt P11511); test: Aromatase (CYP19A) Inhibitor Screening Kit (Fluorimetric), BioVision; format: biochemical
T1 construct: purchased BioVision
T1 sequence (P11511 1-503): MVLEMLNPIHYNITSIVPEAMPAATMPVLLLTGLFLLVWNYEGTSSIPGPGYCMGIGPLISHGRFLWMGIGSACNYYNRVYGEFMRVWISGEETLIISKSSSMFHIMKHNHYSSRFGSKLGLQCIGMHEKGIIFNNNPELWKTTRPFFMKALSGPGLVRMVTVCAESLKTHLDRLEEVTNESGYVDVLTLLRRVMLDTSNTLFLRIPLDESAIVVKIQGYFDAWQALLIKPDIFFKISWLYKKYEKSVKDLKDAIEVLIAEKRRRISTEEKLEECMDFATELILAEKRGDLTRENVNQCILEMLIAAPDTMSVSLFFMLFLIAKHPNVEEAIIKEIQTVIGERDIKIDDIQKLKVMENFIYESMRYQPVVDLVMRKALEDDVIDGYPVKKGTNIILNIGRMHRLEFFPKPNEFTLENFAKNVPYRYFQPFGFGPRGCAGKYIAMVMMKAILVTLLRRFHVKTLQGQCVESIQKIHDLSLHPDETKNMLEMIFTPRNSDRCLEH
Description: An in vitro fluorescence-based test (Aromatase (CYP19A) Inhibitor Screening Kit (Fluorimetric), BioVision) was used to determine the inhibitory activity of the produced compounds against human aromatase.
The BioVision Aromatase (CYP19A) Inhibitor Screening Kit (Fluorometric) was used to carry out this experiment.

[1] = test system: MCF-7 (human breast adenocarcinoma cell line); test: MTT cytotoxicity assay, MCF-7; format: cell-based; details: mean of four independent studies, read-out: IC50 against MCF-7
Description: (§1) In this study, all compounds were tested for antiproliferative activity using an MTT assay with doxorubicin as a control against MCF-7 (human breast adenocarcinoma cell line), A549 (lung carcinoma cell line), HepG2 (human liver carcinoma cell line), HeLa (cervical cell line), and C6 (rat glioma cell line) cell lines. Table 1 summarizes the results of four independent studies as the mean IC50 value (half-maximum inhibitory concentration).
(§2) MTT tests were used to screen the anticancer activities of compounds 5a–i. The MTT assays were carried out as stated previously.[16],[17] The anticancer activity of the final compounds was tested on […]: A549 (lung carcinoma cell line), HeLa (cervical cell line), MCF-7 (human breast adenocarcinoma cell line), HepG2 (human liver carcinoma cell line), C6 (rat glioma cell line), and NIH3T3 […] (mouse embryo fibroblast cell line). In the MTT experiments, doxorubicin and Hoechst 33342 were employed as reference drugs.

[2] = test system: HepG2 (human liver carcinoma cell line); test: MTT cytotoxicity assay, HepG2; format: cell-based; details: mean of four independent studies, read-out: IC50 against HepG2
Description: as §1, §2

[3] = test system: C6 (rat glioma cell line); test: MTT cytotoxicity assay, C6; format: cell-based; details: mean of four independent studies, read-out: IC50 against C6
Description: as §1, §2

[4] = test system: A549 (lung carcinoma cell line); test: MTT cytotoxicity assay, A549; format: cell-based; details: Homo sapiens, mean of four independent studies, read-out: IC50 against A549
Description: as §1, §2

[5] = test system: HeLa (cervical cell line); test: MTT cytotoxicity assay, HeLa; format: cell-based; details: Homo sapiens, mean of four independent studies, read-out: IC50 against HeLa
Description: as §1, §2

[6] = experimental validation of 3D-QSAR model, read-out: IC50 (aromatase, Table 5)
[7] = fluorimetric kit, compound dissolved in acetonitrile, read-out: IC50 aromatase inhibition

| SMILES | IC50 (human aromatase; [6]) | IC50 (human aromatase; [7]) | IC50 ([1]; Homo sapiens, MCF7, MTT assay) | IC50 ([1]; MTT assay) | IC50 [2] | IC50 [3] | IC50 [4] | melting point | IC50 [5] |
| --- | --- | --- | --- | --- | --- | --- | --- | --- | --- |
| O=C(CSc1nnc(-c2ccc3nc(-c4ccc(O)cc4)[nH]c3c2)o1)N1CCN(Cc2ccc(F)cc2)CC1 [5c, 2-((5-(2-(4-Hydroxyphenyl)-1H-benzo[d]imidazol-6-yl)-1,3,4-oxadiazol-2-yl)thio)-1-(4-(4-fluorobenzyl)piperazin-1-yl)ethan-1-one] | 2510 nM | 2510 ± 124 nM | 6.55 ± 0.287 µM | 5.13 ± 0.211 µM | 17.3 ± 1.1 µM | 18.2 ± 1.46 µM | ≥ 100 µM | > 400 °C | – |
| O=C(CSc1nnc(-c2ccc3nc(-c4ccc(O)cc4)[nH]c3c2)o1)N1CCN(Cc2ccccc2)CC1 [5a, 2-((5-(2-(4-Hydroxyphenyl)-1H-benzo[d]imidazol-6-yl)-1,3,4-oxadiazol-2-yl)thio)-1-(4-benzylpiperazin-1-yl)ethan-1-one] | – | 38600 ± 1130 nM | 9.96 ± 0.312 µM | 9.06 ± 0.311 µM | 38.8 ± 0.887 µM | ≥ 100 µM | ≥ 100 µM | 266.5 to 267.9 °C | ≥ 100 µM |
| CCOc1ccc(-c2nc3ccc(-c4nnc(SCC(=O)N5CCN(Cc6ccc(F)cc6)CC5)o4)cc3[nH]2)cc1 [5i, 2-((5-(2-(4-Ethoxyphenyl)-1H-benzo[d]imidazol-6-yl)-1,3,4-oxadiazol-2-yl)thio)-1-(4-(4-fluorobenzyl)piperazin-1-yl)ethan-1-one] | – | 80400 ± 3120 nM | 9.06 ± 0.311 µM | 9.96 ± 0.312 µM | 28.7 ± 1.22 µM | 6 ± 0.227 µM | 4.52 ± 0.21 µM | 189.9 to 191.4 °C | 42 ± 1.32 µM |
| O=C(CSc1nnc(-c2ccc3nc(-c4ccc(O)cc4)[nH]c3c2)o1)N1CCN(Cc2ccc(Cl)cc2)CC1 [5b, 2-((5-(2-(4-Hydroxyphenyl)-1H-benzo[d]imidazol-6-yl)-1,3,4-oxadiazol-2-yl)thio)-1-(4-(4-chlorobenzyl)piperazin-1-yl)ethan-1-one] | 1480 nM | 1470 ± 62 nM | 5.13 ± 0.211 µM | 6.55 ± 0.287 µM | 55.2 ± 1.46 µM | 24.7 ± 1.21 µM | ≥ 100 µM | 155.5 to 157.4 °C | ≥ 100 µM |
